Results published in patent publication US8129371B2, “Thienopyrimidine and pyrazolopyrimidine compounds and their use as mTOR kinase and PI3 kinase inhibitors” (Wyeth LLC, priority 2007, dated 2012).
pIC50: −log10 of the molar value. Where two headings read alike, the source gives them in different places.

Experiments:
[1] = tested on: breast line MDA468; test: In vitro cell culture growth assay (MTS), MDA468; format: cell-based; details: Homo sapiens, 72 h, MDA468 cells, three days after drug treatment
How it was run: (§1)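 Cells were plated and, one day later, treated with inhibitors. Three days after treatment, viable cell density was measured by MTS dye conversion, read as absorbance at 490 nm. Effects are expressed as percent of control growth versus vehicle-treated cells on the same plate.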

[2] = molecular target: T1, Human mTOR (FLAG-TOR) (Homo sapiens, UniProt P42345); test: Human mTOR kinase assay with purified enzyme, DELFIA format; format: biochemical
T1 construct: FLAG
How it was run: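 DELFIA readout: Eu-anti-P(T389)-S6K antibody (40 ng/mL, 1 h) on captured His6-S6K from the stopped reaction. Kinase step used purified FLAG-tagged human mTOR with test compound in HEPES (pH 7.4)/MnCl2/DTT buffer, 2 h at room temperature (linear 1–6 h), terminated by EDTA/EGTA.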

[3] = tested on: prostate line LNCap; test: In vitro cell culture growth assay (MTS), LNCap; format: cell-based; details: Homo sapiens, 72 h, LNCap cells, three days after drug treatment
How it was run: as §1

[4] = molecular target: T2, PI3K (Homo sapiens, UniProt P48736); test: Fluorescence polarization assay for PI3K; format: biochemical
T2 construct: PI3 Kinase γ IC50; other: PI3 Kinase γ; other: PI3 Kinase γ isoform, fluorescence polarization
T2 sequence (P48736 whole entry, canonical isoform): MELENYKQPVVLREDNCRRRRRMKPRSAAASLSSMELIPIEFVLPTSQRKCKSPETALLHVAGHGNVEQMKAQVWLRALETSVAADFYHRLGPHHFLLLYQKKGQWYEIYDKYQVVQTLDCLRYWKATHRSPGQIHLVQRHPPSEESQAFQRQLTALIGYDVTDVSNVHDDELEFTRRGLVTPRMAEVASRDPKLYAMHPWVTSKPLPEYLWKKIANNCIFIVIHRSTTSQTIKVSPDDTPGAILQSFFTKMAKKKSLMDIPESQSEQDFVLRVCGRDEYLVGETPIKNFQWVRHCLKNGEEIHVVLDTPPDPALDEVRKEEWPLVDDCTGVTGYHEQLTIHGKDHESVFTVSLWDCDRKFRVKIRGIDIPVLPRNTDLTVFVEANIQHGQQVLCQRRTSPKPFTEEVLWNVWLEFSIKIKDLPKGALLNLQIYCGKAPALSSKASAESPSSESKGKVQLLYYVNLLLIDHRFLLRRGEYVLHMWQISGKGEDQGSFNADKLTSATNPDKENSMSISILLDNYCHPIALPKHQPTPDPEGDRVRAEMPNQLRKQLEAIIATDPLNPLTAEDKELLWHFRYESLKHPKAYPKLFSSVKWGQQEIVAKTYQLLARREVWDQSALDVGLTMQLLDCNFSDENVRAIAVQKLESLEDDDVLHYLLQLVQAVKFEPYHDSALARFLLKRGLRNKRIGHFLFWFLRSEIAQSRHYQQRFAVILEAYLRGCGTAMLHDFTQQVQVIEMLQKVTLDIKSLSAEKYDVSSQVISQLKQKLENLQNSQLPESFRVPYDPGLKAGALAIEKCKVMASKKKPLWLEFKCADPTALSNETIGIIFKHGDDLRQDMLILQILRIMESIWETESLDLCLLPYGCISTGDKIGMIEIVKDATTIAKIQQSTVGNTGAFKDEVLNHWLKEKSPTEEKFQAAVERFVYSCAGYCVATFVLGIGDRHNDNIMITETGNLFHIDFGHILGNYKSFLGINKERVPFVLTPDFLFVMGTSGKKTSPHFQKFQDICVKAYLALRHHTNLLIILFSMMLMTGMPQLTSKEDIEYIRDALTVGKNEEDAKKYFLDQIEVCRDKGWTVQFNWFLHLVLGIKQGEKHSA
How it was run: (§2)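 Fluorescence-polarization competition readout: after 30–60 min of PIP2/ATP turnover in 1% DMSO, a stop mix with GST-GRP (70 nM) and red probe (10 nM) was added.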

[5] = molecular target: T3, PI3K (Homo sapiens, UniProt P42336); test: Fluorescence polarization assay for PI3K; format: biochemical
T3 construct: PI3 Kinase α IC50; other: PI3 Kinase α; other: PI3 Kinase α isoform, fluorescence polarization
T3 sequence (P42336 whole entry, canonical isoform): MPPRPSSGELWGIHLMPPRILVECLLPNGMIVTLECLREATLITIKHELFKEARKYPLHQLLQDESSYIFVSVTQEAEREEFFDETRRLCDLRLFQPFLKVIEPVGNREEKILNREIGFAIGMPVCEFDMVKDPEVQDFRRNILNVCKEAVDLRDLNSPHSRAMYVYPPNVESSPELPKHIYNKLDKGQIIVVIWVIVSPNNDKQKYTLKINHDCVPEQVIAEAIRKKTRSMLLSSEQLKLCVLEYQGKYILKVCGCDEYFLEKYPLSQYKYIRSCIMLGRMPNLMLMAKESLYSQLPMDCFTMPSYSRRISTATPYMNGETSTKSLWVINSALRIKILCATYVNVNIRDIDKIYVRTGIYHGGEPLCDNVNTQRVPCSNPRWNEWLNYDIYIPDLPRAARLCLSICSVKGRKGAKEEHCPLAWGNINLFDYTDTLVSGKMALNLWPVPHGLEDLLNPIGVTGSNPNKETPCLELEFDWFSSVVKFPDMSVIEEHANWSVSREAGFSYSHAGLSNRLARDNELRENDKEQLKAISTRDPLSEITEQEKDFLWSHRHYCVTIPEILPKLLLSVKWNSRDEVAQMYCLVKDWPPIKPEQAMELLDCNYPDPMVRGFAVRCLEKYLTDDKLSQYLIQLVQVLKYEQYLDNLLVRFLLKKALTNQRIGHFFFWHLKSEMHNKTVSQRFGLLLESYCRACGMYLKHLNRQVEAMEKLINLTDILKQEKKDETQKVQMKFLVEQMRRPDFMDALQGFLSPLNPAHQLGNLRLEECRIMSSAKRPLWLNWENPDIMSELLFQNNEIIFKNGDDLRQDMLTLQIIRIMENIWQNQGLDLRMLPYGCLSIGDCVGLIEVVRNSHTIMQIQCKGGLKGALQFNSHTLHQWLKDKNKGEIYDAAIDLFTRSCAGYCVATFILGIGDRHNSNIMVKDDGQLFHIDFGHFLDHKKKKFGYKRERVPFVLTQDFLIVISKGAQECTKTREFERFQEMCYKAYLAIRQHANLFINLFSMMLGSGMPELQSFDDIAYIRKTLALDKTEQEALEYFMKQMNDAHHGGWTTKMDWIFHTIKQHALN
How it was run: as §2

[6] = PI3 Kinase γ, read-out: PI3 Kinase γ IC50
[7] = PI3 Kinase α, read-out: PI3 Kinase α IC50

SMILES | pIC50 [1] | pIC50 [2] | pIC50 ([3]; LNCaP) | pIC50 [4, 6] | pIC50 [5, 7] | pIC50 [3] | pIC50 [4] | pIC50 [5]
Cn1ncc2c(N3CC4CCC(C3)O4)nc(-c3ccc(NC(=O)Nc4ccc(N5CCOCC5)cc4)cc3)nc21 [Example 238, 1-{4-[1-methyl-4-(8-oxa-3-azabicyclo[3.2.1]oct-3-yl)-1H-pyrazolo[3,4-d]pyrimidin-6-yl]phenyl}-3-(4-morpholin-4-ylphenyl)urea] | 8.10 | 9.61 | 9.00 | < 5.00 | 6.43 |  |  | 
Cn1ncc2c(N3CC4CCC(C3)O4)nc(-c3ccc(NC(=O)Nc4ccc(S(C)(=O)=O)cc4)cc3)nc21 [Example 239, 1-{4-[1-methyl-4-(8-oxa-3-azabicyclo[3.2.1]oct-3-yl)-1H-pyrazolo[3,4-d]pyrimidin-6-yl]phenyl}-3-[4-(methylsulfonyl)phenyl]urea] | 8.40 | 9.97 | 9.00 | 6.36 | 7.19 |  |  | 
Cn1ncc2c(N3CC4CCC(C3)O4)nc(-c3ccc(NC(=O)Nc4ccc(S(=O)(=O)CCN5CCCCC5)cc4)cc3)nc21 [Example 240, 1-{4-[1-methyl-4-(8-oxa-3-azabicyclo[3.2.1]oct-3-yl)-1H-pyrazolo[3,4-d]pyrimidin-6-yl]phenyl}-3-{4-[(2-piperidin-1-ylethyl)sulfonyl]phenyl}urea] | 8.10 | 9.52 | 9.00 | 6.04 | 6.94 |  |  | 
CNC(=O)Nc1ccc(-c2nc(N3CC4CCC(C3)O4)c3cnn(CCF)c3n2)cc1 [Example 241, 1-{4-[1-(2-fluoroethyl)-4-(8-oxa-3-azabicyclo[3.2.1]oct-3-yl)-1H-pyrazolo[3,4-d]pyrimidin-6-yl]phenyl}-3-methylurea] | 6.64 | 9.02 | 6.96 | < 5.00 | 6.26 |  |  | 
CN(C)c1ccc(NC(=O)Nc2ccc(-c3nc(N4CC5CCC(C4)O5)c4cnn(CCF)c4n3)cc2)cc1 [Example 242, 1-[4-(dimethylamino)phenyl]-3-{4-[1-(2-fluoroethyl)-4-(8-oxa-3-azabicyclo[3.2.1]oct-3-yl)-1H-pyrazolo[3,4-d]pyrimidin-6-yl]phenyl}urea] | 7.72 | 9.18 | 8.40 | < 5.00 | 6.06 |  |  | 
CN(C)CCOc1ccc(NC(=O)Nc2ccc(-c3nc(N4CC5CCC(C4)O5)c4cnn(CCF)c4n3)cc2)cc1 [Example 243, 1-{4-[2-(dimethylamino)ethoxy]phenyl}-3-{4-[1-(2-fluoroethyl)-4-(8-oxa-3-azabicyclo[3.2.1]oct-3-yl)-1H-pyrazolo[3,4-d]pyrimidin-6-yl]phenyl}urea] | 8.05 | 9.08 | 8.40 | 5.89 | 6.94 |  |  | 
O=C(Nc1ccc(-c2nc(N3CC4CCC(C3)O4)c3cnn(CCF)c3n2)cc1)Nc1ccc(N2CCOCC2)cc1 [Example 244, 1-{4-[1-(2-fluoroethyl)-4-(8-oxa-3-azabicyclo[3.2.1]oct-3-yl)-1H-pyrazolo[3,4-d]pyrimidin-6-yl]phenyl}-3-(4-morpholin-4-ylphenyl)urea] | 8.15 | 9.73 | 9.00 | < 5.00 | 6.13 |  |  | 
O=C(Nc1ccc(-c2nc(N3CC4CCC(C3)O4)c3cnn(CCF)c3n2)cc1)OCCO [Example 245, 2-hydroxyethyl {4-[1-(2-fluoroethyl)-4-(8-oxa-3-azabicyclo[3.2.1]oct-3-yl)-1H-pyrazolo[3,4-d]pyrimidin-6-yl]phenyl}carbamate] | 6.05 | 8.92 | 6.89 | < 5.00 | 5.54 |  |  | 
CN1CCN(c2ccc(NC(=O)Nc3ccc(-c4nc(N5CC6CCC(C5)O6)c5cnn(CCF)c5n4)cc3)cc2)CC1 [Example 246, 1-{4-[1-(2-fluoroethyl)-4-(8-oxa-3-azabicyclo[3.2.1]oct-3-yl)-1H-pyrazolo[3,4-d]pyrimidin-6-yl]phenyl}-3-[4-(4-methylpiperazin-1-yl)phenyl]urea] | 8.15 | 9.16 | > 9.00 | 5.81 | 7.02 |  |  | 
CCNC(=O)Nc1ccc(-c2nc(N3CC4CCC(C3)O4)c3cnn(CCF)c3n2)cc1 [Example 247, 1-ethyl-3-{4-[1-(2-fluoroethyl)-4-(8-oxa-3-azabicyclo[3.2.1]oct-3-yl)-1H-pyrazolo[3,4-d]pyrimidin-6-yl]phenyl}urea] | 6.40 | 9.15 | 7.05 | < 5.00 | 5.86 |  |  | 
O=C(Nc1ccc(-c2nc(N3CC4CCC(C3)O4)c3cnn(CCF)c3n2)cc1)NC1CC1 [Example 248, 1-cyclopropyl-3-{4-[1-(2-fluoroethyl)-4-(8-oxa-3-azabicyclo[3.2.1]oct-3-yl)-1H-pyrazolo[3,4-d]pyrimidin-6-yl]phenyl}urea] | 6.30 | 9.12 | 7.05 | < 5.00 | 5.74 |  |  | 
O=C(Nc1ccncc1)Nc1ccc(-c2nc(N3CC4CCC(C3)O4)c3cnn(CCF)c3n2)cc1 [Example 249, 1-{4-[1-(2-fluoroethyl)-4-(8-oxa-3-azabicyclo[3.2.1]oct-3-yl)-1H-pyrazolo[3,4-d]pyrimidin-6-yl]phenyl}-3-pyridin-4-ylurea] | 8.10 | 9.73 | > 9.00 | 5.92 | 6.99 |  |  | 
O=C(Nc1ccc(CO)cc1)Nc1ccc(-c2nc(N3CC4CCC(C3)O4)c3cnn(CCF)c3n2)cc1 [Example 250, 1-{4-[1-(2-fluoroethyl)-4-(8-oxa-3-azabicyclo[3.2.1]oct-3-yl)-1H-pyrazolo[3,4-d]pyrimidin-6-yl]phenyl}-3-[4-(hydroxymethyl)phenyl]urea] | 8.40 | 10.07 | > 9.00 | 6.02 | 7.47 |  |  | 
O=C(Nc1ccc(-c2nc(N3CC4CCC(C3)O4)c3cnn(CC(F)(F)F)c3n2)cc1)Nc1ccc(N2CCOCC2)cc1 [Example 251, 1-(4-morpholin-4-ylphenyl)-3-{4-[4-(8-oxa-3-azabicyclo[3.2.1]oct-3-yl)-1-(2,2,2-trifluoroethyl)-1H-pyrazolo[3,4-d]pyrimidin-6-yl]phenyl}urea] | > 9.00 | 9.47 | > 9.00 | < 5.00 | 6.00 |  |  | 
O=C(Nc1ccc(-c2nc(N3CC4CCC(C3)O4)c3cnn(CC(F)(F)F)c3n2)cc1)Nc1ccc(N2CCOCC2)nc1 [Example 252, 1-(6-morpholin-4-ylpyridin-3-yl)-3-{4-[4-(8-oxa-3-azabicyclo[3.2.1]oct-3-yl)-1-(2,2,2-trifluoroethyl)-1H-pyrazolo[3,4-d]pyrimidin-6-yl]phenyl}urea] | 8.10 | 9.33 | 9.00 | < 5.00 | 5.02 |  |  | 
O=C(Nc1ccc(CO)cc1)Nc1ccc(-c2nc(N3CC4CCC(C3)O4)c3cnn(CC(F)(F)F)c3n2)cc1 [Example 253, 1-[4-(hydroxymethyl)phenyl]-3-{4-[4-(8-oxa-3-azabicyclo[3.2.1]oct-3-yl)-1-(2,2,2-trifluoroethyl)-1H-pyrazolo[3,4-d]pyrimidin-6-yl]phenyl}urea] | > 9.00 | 9.82 | 9.00 | 6.11 | 7.25 |  |  | 
Nc1cccc(COC(=O)Nc2ccc(-c3nc(N4CC5CCC(C4)O5)c4cnn(CC(F)(F)F)c4n3)cc2)c1 [Example 254, 3-aminobenzyl {4-[4-(8-oxa-3-azabicyclo[3.2.1]oct-3-yl)-1-(2,2,2-trifluoroethyl)-1H-pyrazolo[3,4-d]pyrimidin-6-yl]phenyl}carbamate] | 6.70 | 5.79 | 5.21 | 4.92 | 5.02 |  |  | 
O=C(Nc1ccc(-c2nc(N3CC4CCC(C3)O4)c3cnn(CC(F)(F)F)c3n2)cc1)Nc1cccc(CO)c1 [Example 255, 1-[3-(hydroxymethyl)phenyl]-3-{4-[4-(8-oxa-3-azabicyclo[3.2.1]oct-3-yl)-1-(2,2,2-trifluoroethyl)-1H-pyrazolo[3,4-d]pyrimidin-6-yl]phenyl}urea] | 7.52 | 9.23 | 8.22 | 6.14 | 6.98 |  |  | 
CN(C)c1cccc(OC(=O)Nc2ccc(-c3nc(N4CC5CCC(C4)O5)c4cnn(CC(F)(F)F)c4n3)cc2)c1 [Example 256, 3-(dimethylamino)phenyl {4-[4-(8-oxa-3-azabicyclo[3.2.1]oct-3-yl)-1-(2,2,2-trifluoroethyl)-1H-pyrazolo[3,4-d]pyrimidin-6-yl]phenyl}carbamate] | 4.74 | 6.71 |  |  |  | 5.46 | < 5.00 | < 5.00
CN(C)c1cccc(NC(=O)Nc2ccc(-c3nc(N4CC5CCC(C4)O5)c4cnn(CC(F)(F)F)c4n3)cc2)c1 [Example 257, 1-[3-(dimethylamino)phenyl]-3-{4-[4-(8-oxa-3-azabicyclo[3.2.1]oct-3-yl)-1-(2,2,2-trifluoroethyl)-1H-pyrazolo[3,4-d]pyrimidin-6-yl]phenyl}urea] | 8.52 | 8.74 | > 9.00 | 5.37 | 6.46 |  |  | 
